# Reference: patent US20200032249A1, “LABELING, ISOLATION, & ANALYSIS OF RNA FROM RARE CELL POPULATIONS” (priority 2017, published 2020)
# How the values were obtained:
# 293T cells = assay: anti-BrdU immunofluorescent staining of 293T cells treated with 5-FC or 5-FU; type: cell-based, human; conditions: 250 μM, 24 h
# Procedure: S. cerevisiae CD was exogenously expressed in human embryonic kidney 293T cells, and the cells were treated with 250 μM fluorocytosine (5-FC). This system is predicted to generate intracellular fluorouracil (5-FU), which is then incorporated into newly synthesized RNAs (FIG. 1a, b). Antibodies against bromodeoxyuridine (BrdU) can recognize BrdU and other halogenated uridines incorporated into nucleic acids (8).
# Human embryonic kidney transformed with […] (293T) and human breast cancer MDA-MB-231 (MDA231) cells were cultured in DMEM High Glucose medium (Wheaton) supplemented with 10% Fetal Bovine Serum (Clontech, Catalog number 631106) supplemented with 2 mM L-Glutamine. All cell lines have been routinely tested for mycoplasma contamination. For the induction of CD or CD and UPRT, cells were treated with 1 μg/ml doxycycline for 24 h. For Fluorouracil tagging, cells were treated with 250 μM of 5-FC or 5-FU unless indicated. Where indicated, 125 μM thymine was added together with 5-FC. For the formation of stress granules, cells were treated with 500 μM Sodium Arsenite (Santa Cruz Biotechnologies, Catalog number SC-301816).
# Cells were fixed with 4% paraformaldehyde for 10 min, permeabilized with 0.2% TritonX-100 for 10 min, blocked with 5% BSA for one hour at room temperature, prior to incubation with primary antibodies at 4° C. overnight, and secondary antibodies (Thermo Fisher anti-chicken antibody, Catalog number A-11039, Thermo Fisher anti-rat antibody, Catalog number A-11006, Abcam anti-rat antibody, Catalog number ab150117) incubated for 1 h at room temperature. Mouse lungs were fixed in 4% paraformaldehyde overnight at 4° C., embedded in paraffin and sectioned. The lung sections were deparaffinized and stained with hematolxylin/eosin or immunostained using standard protocols. Automated image analysis was performed using the FIJI software package.
# [1] = test system: CD/UPRT-expressing MDA231 cells; assay: expression of representative human genes in mouse lung lysates by RT-PCR; type: in vivo; conditions: 250 mg/kg, 8 h, mouse lungs
# Procedure: FIG. 5 a-e. Flura-tagging enables transcriptional profiling from micrometastatic lung xenografts. FIG. 5a—Representative H & E stained sections of mouse lungs harboring micrometastases (arrows) used in Flura-tagging experiments. […] Scale bar=2 mm (top), 100 μM (bottom). FIG. 5b—Representative micrometastasis in the context of lung vasculature. MDA231 cells were stained with anti-GFP antibody, blood vessels with anti-CD31 antibody and nuclei (DNA) with Hoechst 33258. Scale bar=50 μM. FIG. 5c—Quantification of the number of cells per micrometastasis per tissue section in engrafted lungs of mice used in the Flura-tagging experiments. The number of nuclei in individual micrometastases in lung sections from 16 separate mice were counted. […] Expression of the indicated representative genes in the lung lysates containing control MDA231 cells or MDA231 cells expressing CD/UPRT and treated with 250 mg/kg 5-FC for 8 h, was measured by RT-PCR using human specific primers (n=3). […] FIG. 5e—Flow cytometric quantification of the number of RFP+ MDA231 cells in mouse lung in the Flura-tagging experiments. […]
# Mouse experiments were performed following the protocols approved by the MSKCC Institutional Animal Care and Use Committee (IACUC). […] Proliferation of injected cancer cells were quantified using bioluminescence imaging following retroorbital injection of luciferin. […]
smiles,measurement,setting,value
"Nc1nc(=O)[nH]cc1F [5-FC, 5-fluorocytosine]",immunostaining with anti-BrdU antibody,293T cells; 293T cells expressing CD,stained by the antibody
same,immunostaining with anti-BrdU antibody,293T cells; untransfected control 293T cells,did not
same,range of expression of representative human genes vs control MDA231 cells,[1],≤ 2 fold
